In brackets after ≈: the same amount, converted by molar mass. Read-outs that look alike come from different tables or passages of the source.
Assays:
[1] = Cytotoxicity (MTC), HEP-2 cells; format: cell-based; details: human, read-out: minimum cytotoxic concentration (MTC)
Description: (§1) Minimum cytotoxic concentrations (MTC) for MMdCyd was greater than 1,000 μg/ml for RK-13, HEP-2 and Vero cells.
(§2) ^c MTC = Minimum toxic concentration concentration required to
(§3) produce definite evidence of microscopic toxicity on confluent monolayer

[2] = Inhibition of proliferation (MTC), MT4 cells; format: cell-based; details: human, highest concentration tested
Description: (§4) Inhibitory effects of MMdCyd on the proliferation of murine and human tumor cells was also investigated. MTC for MMdCyd was greater than 400 μg/ml (highest concentration tested) against Raji, MOLT/4F, MT4, CEM and H-9 (human) and L1210 (murine Leukemia) cells.

[3] = Cytotoxicity (MTC), RK-13 cells; format: cell-based; details: rabbit, read-out: minimum cytotoxic concentration (MTC)
Description: as §1, §2, §3

HSV-1, KOS [4] = experiment: HSV-1 KOS infectivity in Vero cells prior to washing of drugs; format: cell-based, Herpes simplex virus type 1; details: for Virus Infectivity (% of virus control): combination with H4 dUrd 530 μM
Description: Vero cells were infected with HSV-1, KOS strain and then treated with MMdCyd in various quantities, and also with MMdCyd in various quantities together with a constant amount of H4 dUrd. The virus infectivity was observed and the results are given in Table 5 and are shown graphically in FIG. 3.
^a Virus infectivity was scored using following parameters: rounding
of cells, plaque formation and loss of monolayer structure.
^b Concentration of H4 dUrd used was 530 μM (125 μg/ml).

[5] = Inhibition of proliferation (MTC), Raji cells; format: cell-based; details: human, highest concentration tested
Description: as §4

[6] = Inhibition of proliferation (MTC), CEM cells; format: cell-based; details: human, highest concentration tested
Description: as §4

[7] = system: Herpes simplex virus type 1 (HSV-1); experiment: Antiviral activity against HSV-1, viral plaque reduction (ED50); format: cell-based
[8] = system: Herpes simplex virus type 2 (HSV-2); experiment: Antiviral activity against HSV-2, viral plaque reduction (ED50); format: cell-based; details: 50 PFU
Description: (§5) Infected cells were treated with different concentrations of MMdCyd and the concentration required to reduce viral plaque formation by 50%, i.e. ED50, was determined.
(§6) ^a ED50 : Concentration required to reduce viral plaque formatio
(§7) The antiviral activity of MMdCyd in the presence of H4 dUrd was determined against several strains of HSV-1 and HSV-2.
^a Antiviral assays were carried out using Vero cells. Virus input 50
^b ED50 : Concentration required to reduce viral plaque formatio

[9] = system: Deoxynucleoside Triphosphate (dNTP) Pools in Vero Cells Infected with Herpes Simplex Virus Type 1; experiment: Deoxynucleoside triphosphate (dNTP) pools in HSV-1 infected Vero cells; format: cell-based; details: Table 8, HSV-1 KOS infected Vero cells, 10 PFU/cell, treatment 7 hours, ± S.E.
Description: Example 9 was repeated, except that the Vero cells subjected to the treatment had all been infected with HSV-1 KOS strain prior to the treatment.
^a Cells were infected with 10 PFU/cell of HSV1 KOS strain for one
hour. Treatments were given for seven hours.
^a Cells were infected with 10 PFU/cell of HSV1, KOS strain after
^b H4 dUrd in MEM was added immediately after adsorption and
^c H4 dUrd in MEM was added immediately after adsorption and
Vero cells and HSV-infected Vero cells were treated with dGUO and dGUO and H4 dUrd. The cells were then assayed for the presence of deoxynucleoside triphosphates. Untreated Vero cells were also assayed for the presence of deoxynucleoside triphophate to provide a control.
^c Cells were infected with 10 PFU/cell of HSV1 strain KOS for one

[10] = system: Herpes simplex virus type 1 (HSV-1); experiment: Antiviral activity against HSV-1, viral plaque reduction (ED50); format: cell-based; remark: listed apart in the source
Description: as §5, §6
Vero cells were infected with the KOS strain of HSV-1. The compound of compounds indicated in Table 2, below, and are shown graphically in FIGS. 1, (H4 dUrd) and 2 (H4 Urd).
^a Antiviral assays were carried out using Vero cells. All compounds
were added immediately after virus infection.
as §7
Vero cells were infected with HSV-1, strain 76 and treated with MMdCyd at different times post virus infection.
(§8) The antiviral activity, ^a cyctotoxicity* and antiviral indices of MMdCyd in the presence of H4 dUrd, dGuo and H4 dUrd+dGuo were determined.
^a Antiviral assays were carried out using Vero cells. Compounds were
added immediately after virus infection. Virus HSV1, strains KOS and 76;
KOS, virus input = 50 PFU

[11] = Inhibition of proliferation (MTC), MOLT/4F cells; format: cell-based; details: human, highest concentration tested
Description: as §4

HSV-1, KOS [12] = experiment: HSV-1 KOS infectivity (virus yield) in Vero cells after removal of drugs; format: cell-based, Herpes simplex virus type 1; details: for Virus Infectivity (% of virus control): after drug removal, combination with H4 dUrd 530 μM, 4320 min
Description: Vero cells were infected with HSV-1, KOS strain and then samples of the infected cells were treated with MMdCyd in various quantities and with MMdCyd in various quantities together with 530 μM of H4 dUrd. Cells were washed twice with 0.4 ml of MEM to remove residual drug, overlaid with growth medium and incubated for 72 h. The virus was harvested by two cycles of freezing and thawing. The culture fluid from each treatment was pooled and assayed for virus yield.
^b H4 dUrd 530 μM (125 μg/ml) was added along with MMdCyd.

[13] = Inhibition of proliferation (MTC), L1210 cells; format: cell-based, murine; details: mouse, highest concentration tested
Description: as §4

[14] = Cytotoxicity (MTC), Vero cells; format: cell-based; details: monkey
Description: as §8, §1, §2, §3

Vero cells = experiment: Cytotoxicity (MTC), Vero cells; format: cell-based; details: monkey
Description: as §8, §1, §2, §3

COCc1cn([C@H]2C[C@H](O)[C@@H](CO)O2)c(=O)nc1N [MMdCyd, 5-methoxymethyl-2'-deoxycytidine]
MCC [1]: > 1000 µg/mL
MCC [2]: > 400 µg/mL
MCC [3]: > 1000 µg/mL
viral infectivity, conclusion (HSV-1, KOS [4]; Example 7): reduces viral infectivity
Virus Infectivity (% of virus control) (HSV-1, KOS [4]; MMdCyd 1.6 μM): 90 % of virus control
Virus Infectivity (% of virus control) (HSV-1, KOS [4]; MMdCyd 3.2 μM): 80 % of virus control
Virus Infectivity (% of virus control) (HSV-1, KOS [4]; MMdCyd 6.4 μM): 66 % of virus control
Virus Infectivity (% of virus control) (HSV-1, KOS [4]; MMdCyd 12.8 μM): 64 % of virus control
Virus Infectivity (% of virus control) (HSV-1, KOS [4]; MMdCyd 25.6 μM): 45 % of virus control
Virus Infectivity (% of virus control) (HSV-1, KOS [4]; MMdCyd 51.2 μM): 32 % of virus control
Virus Infectivity (% of virus control) (HSV-1, KOS [4]; MMdCyd 104 μM): 20 % of virus control
Virus Infectivity (% of virus control) (HSV-1, KOS [4]; MMdCyd 208 μM): 9 % of virus control
Virus Infectivity (% of virus control) (HSV-1, KOS [4]; MMdCyd 416 μM): 0 % of virus control
Virus Infectivity (% of virus control) (HSV-1, KOS [4]; MMdCyd 832 μM): 0 % of virus control
production of infectious virus particles (HSV-1, KOS [4]; combination: MMdCyd >12 μM with H4 dUrd (printed 530 M)): significantly decreased
MCC [5]: > 400 µg/mL
MCC [6]: > 400 µg/mL
EC50 ([7]; HSV-1 76, HEP-2, 50 PFU): 22 µM
EC50 ([7]; HSV-1 (strain cell empty, under NAH), RK-13, 50 PFU): 5 µM
EC50 ([7]; HSV-1 KOS, Vero, 20 PFU, deaminase inhibitor 125 μg/ml, added immediately after infection): 12 to 17 µM
EC50 ([8]; HSV-2 333, Vero): 175 µM
EC50 ([8]; HSV-2 MS, Vero): 228 µM
EC50 ([8]; HSV-2 X-265, Vero): 130 µM
dATP pool [9]: 25.2 ± 0.49 .rho.moles/10^6 cells
dCTP pool [9]: 29.6 ± 1.85 .rho.moles/10^6 cells
dGTP pool [9]: 72.6 ± 2.07 .rho.moles/10^6 cells
dTTP pool [9]: 1072 ± 11.2 .rho.moles/10^6 cells
ED50 [10]: 6 to 12 µg/mL
ED50 ([10]; FIG. 6, after preincubating cells 3 hours with 25 μm dUrd, then washing): 21 µg/mL (≈ 77.4 µM)
ED50 ([10]; FIG. 6, with 25 μM dUrd added simultaneously): 38 µg/mL (≈ 140 µM)
EC50 ([10]; HSV-1 76, Vero, 50 PFU, added 4 hours post infection, read-out: ED50 (the source's name)): 28 µM
EC50 ([10]; HSV-1 76, Vero, 50 PFU, added 6 hours post infection, read-out: ED50 (the source's name)): 32 µM
EC50 ([10]; HSV-1 (strain cell empty, under NAH), RK-13, 10 PFU, read-out: ED50 (the source's name)): 3 µM
EC50 ([10]; HSV-1, Vero and HEP-2 cells, read-out: ED50 (the source's name)): 14 to 26 µM
EC50 ([10]; HSV-1 KOS, Vero, 20 PFU, read-out: ED50 (the source's name)): 14 µM
EC50 ([10]; HSV-1 KOS, Vero, 50 PFU, read-out: ED50 (the source's name)): 26 µM
EC50 ([10]; HSV-1 NAH, Vero, 50 PFU, read-out: ED50 (the source's name)): 66 µM
activity against thymidine kinase negative strain ([10]; HSV--TK^-): lack of activity
ED50, average value ([10]; Table 11, Vero, HSV-1 KOS and 76, 50-100 PFU, H4 dUrd 12 μg/ml, dGuo 25-30 μg/ml, average): 8 µg/mL (≈ 29.5 µM)
A.I (antiviral index, MTC divided by ED50) ([10]; monkey, vero cells): > 125
EC50 ([10]; read-out: ED50, HSV-1 TK, Vero, 10 PFU, highest concentration tested): > 833 µM
EC50 ([10]; read-out: ED50, HSV-1 TK, Vero, 50 PFU, highest concentration tested): > 833 µM
antiherpes activity ([10]; summary statement): potent and selective antiherpes agent
ED50 on delayed treatment compared with one hour post virus infection ([10]; treatment delayed 4 to 6 hours post infection): essentially similar
MCC [11]: > 400 µg/mL
effectiveness against the virus, conclusion (HSV-1, KOS [12]; Example 8): effective against the virus
Virus Infectivity (% of virus control) (HSV-1, KOS [12]; MMdCyd 1.6 μM): 100 % of virus control
Virus Infectivity (% of virus control) (HSV-1, KOS [12]; MMdCyd 3.2 μM): 99 % of virus control
Virus Infectivity (% of virus control) (HSV-1, KOS [12]; MMdCyd 6.4 μM): 99 % of virus control
Virus Infectivity (% of virus control) (HSV-1, KOS [12]; MMdCyd 12.8 μM): 99 % of virus control
Virus Infectivity (% of virus control) (HSV-1, KOS [12]; MMdCyd 25.6 μM): 99 % of virus control
Virus Infectivity (% of virus control) (HSV-1, KOS [12]; MMdCyd 51.2 μM): 70 % of virus control
Virus Infectivity (% of virus control) (HSV-1, KOS [12]; MMdCyd 104 μM): 55 % of virus control
Virus Infectivity (% of virus control) (HSV-1, KOS [12]; MMdCyd 208 μM): 40 % of virus control
Virus Infectivity (% of virus control) (HSV-1, KOS [12]; MMdCyd 416 μM): 20 % of virus control
Virus Infectivity (% of virus control) (HSV-1, KOS [12]; MMdCyd 832 μM): 10 % of virus control
virus infectivity after washing of drugs (HSV-1, KOS [12]; less than 26 μM MMdCyd): no decrease in virus infectivity
MCC [13]: > 400 µg/mL
MCC [14]: > 1000 µg/mL
MTC (minimum toxic concentration) (Vero cells): > 1,000 μg/ml

From US4990499A, “Anti-herpes simplex virus activity of 5-alkoxymethyl-2'-deoxycytidimes and their 5-monophosphates” (priority 1989, dated 1991)
